# Data from PubChem BioAssay (NCI).
# Where “and” joins values, the source holds several entries; their conditions need not be identical. Equal values may be shown once.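 Exposure lasted 48 hours, with cells grown in 96-well plates and compounds tested at five concentrations. Abbreviation: GI50, concentration required for 50% inhibition of growth. The concentration for full growth arrest is given as TGI.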
# Columns and labels:
# Experiment in all cases: NCI-60 cell line screen, 48 h
# NCI/ADR-RES ovarian = test system: NCI/ADR-RES ovarian
# LOX IMVI melanoma = test system: LOX IMVI melanoma
# NCI-H522 lung = test system: NCI-H522 lung
# HCC-2998 colon = test system: HCC-2998 colon
# NCI-H226 lung = test system: NCI-H226 lung
# HOP-92 NSCLC = test system: HOP-92 NSCLC
# A498 renal = test system: A498 renal
# RPMI-8226 leukemia = test system: RPMI-8226 leukemia
# CAKI-1 renal = test system: CAKI-1 renal
# SK-MEL-5 melanoma = test system: SK-MEL-5 melanoma
SMILES,GI50 (NCI/ADR-RES ovarian),TGI (NCI/ADR-RES ovarian),GI50 (LOX IMVI melanoma),TGI (LOX IMVI melanoma),GI50 (NCI-H522 lung),TGI (NCI-H522 lung),GI50 (HCC-2998 colon),TGI (HCC-2998 colon),GI50 (NCI-H226 lung),TGI (NCI-H226 lung),GI50 (HOP-92 NSCLC),TGI (HOP-92 NSCLC),GI50 (A498 renal) [µM],TGI (A498 renal) [µM],GI50 (RPMI-8226 leukemia),TGI (RPMI-8226 leukemia),GI50 (CAKI-1 renal) [µM],TGI (CAKI-1 renal),GI50 (SK-MEL-5 melanoma),TGI (SK-MEL-5 melanoma)
O=C(CCCN1CCOCC1)Nc1ccc(Cn2nnc3c2C(=O)c2nnn(Cc4ccc(NC(=O)CCCN5CCOCC5)cc4)c2C3=O)cc1,> 100 µM,> 100 µM,2.01 µM,6.3 µM,1.38 µM,3.59 µM,2.62 µM,5.79 µM,> 100 µM,> 100 µM,2.54 µM,5.04 µM,> 100,> 100,2.18 µM,7.48 µM,> 100,> 100 µM,1.52 µM,3.55 µM
CN(N=O)C(=O)N[C@@H](C=O)[C@@H](O)[C@H](O)[C@H](O)CO,,> 750 µM,722 µM and > 750 µM,> 750 µM,> 750 µM,646 µM and > 750 µM,> 750 µM,600 µM and > 750 µM,> 750 µM,> 750 µM,> 750 µM,621 µM and > 750 µM,,> 628,> 750 µM,612 µM and > 750 µM,> 750,457 µM and > 750 µM,> 750 µM,631 µM and > 750 µM
O=C(Nc1ccc(Oc2ccc3nc(NC(=O)c4ccccc4)[nH]c3c2)cc1)Nc1cc(C(F)(F)F)ccc1F,0.771 µM,3.38 µM,0.97 µM,> 10.8 µM,1.6 µM,> 14.9 µM,2.38 µM,> 21.5 µM,0.603 µM,3.97 µM,0.887 µM,8.81 µM,2.57,> 25,0.792 µM,3.86 µM,1.09,7.8 µM,0.543 µM,1.83 µM
COc1ccc2c(c1)C(=O)c1c-2c(Nc2ccc(C(C)=O)cc2)nc2ccccc12,41.7 µM,> 100 µM,54.7 µM,> 100 µM,30.3 µM,> 100 µM,97.1 µM,> 100 µM,38.3 µM,> 100 µM,24 µM,73.7 µM,35.2,> 100,89.5 µM,> 100 µM,> 100,> 100 µM,48.3 µM,> 100 µM
c1ccc(-c2cc(C3CO3)c3ccccc3n2)cc1 (centres undefined),,57.6 µM,,34.1 µM,,14.6 µM,,35.2 µM,,43.1 µM,,39.2 µM,,39.8,,58.1 µM,,47.9 µM,,31.4 µM
O=C(CSC(c1ccccc1)c1ccccc1)N/N=C/c1cccc(Cl)c1,14.3 µM,31.8 µM,17.9 µM,33.3 µM,10.1 µM,23.7 µM,18.6 µM,32.6 µM,15.6 µM,31.3 µM,21.2 µM,37.2 µM,14.9,29,19 µM,41.7 µM,23.4,52.5 µM,11.4 µM,23.7 µM
CN(C)c1ccc(/C=C(\C#N)c2nc3ccccc3n2C)cc1,1.47 µM,11.1 µM,5.68 µM,> 62.2 µM,1.7 µM,16 µM,4.43 µM,27.7 µM,9.22 µM,> 81.3 µM,5.68 µM,28.9 µM,0.729,6.82,2.85 µM,14.7 µM,5.16,> 90.6 µM,1.92 µM,13.6 µM
O=C1C2=Nc3ccccc3C(O)N2c2ccccc21 (centres undefined),,> 100 µM,,13.1 µM,,32.6 µM,,> 94.3 µM,,77.3 µM,,> 100 µM,,90.9,,> 100 µM,,> 100 µM,,3.76 µM
O=C([O][Hg][CH2]C1COC([CH2][Hg][O]C(=O)c2ccccc2)CO1)c1ccccc1 (centres undefined),10.9 µM and 1.74 µM,28.9 µM and 4.76 µM,1.89 µM and 1.66 µM,4.85 µM and 3.11 µM,1.47 µM and 1.14 µM,3.78 µM and 4.64 µM,17.6 µM and 3.65 µM,32.2 µM and 9.35 µM,20.2 µM and 6.31 µM,39.1 µM and 34 µM,1.87 µM and 1.94 µM,4.16 µM and 3.37 µM,18.8,33.1,1.97 µM and 2.14 µM,8.46 µM and 6.07 µM,3.38,6.76 µM,15.1 µM and 2.85 µM,28.6 µM and 10.7 µM
O=C(c1ccco1)c1nc2cc(F)ccc2[n+]([O-])c1C(F)(F)F,21.5 µM,66.5 µM,19.4 µM,39.2 µM,14.7 µM,32.2 µM,17 µM,32 µM,99.1 µM,> 100 µM,22.6 µM,58.7 µM,86.6,> 100,35.8 µM,> 100 µM,15.8,30.8 µM,> 100 µM,> 100 µM
C/C(=N\N=C(\[Se])N1CCN(c2ccccn2)CC1)c1ccccn1,,18.6 µM,0.00443 µM,17.6 µM,0.0429 µM,0.761 µM and 3.2 µM,,23.3 µM,,14.3 µM,0.0044 µM,13.2 µM,,18.1,0.00477 µM,0.486 µM,0.0408,21.3 µM,0.0401 µM,3.95 µM
N#Cc1ccc(N2Cc3ccccc3OC3=C2C(=O)c2c(O)ccc(O)c2C3=O)cc1,0.611 µM,6.8 µM,0.166 µM,0.44 µM,0.0336 µM,0.162 µM,0.762 µM,1.79 µM,0.282 µM,1.13 µM,0.163 µM,0.409 µM,1.79,4.13,0.261 µM,1.31 µM,0.0992,0.366 µM,0.685 µM,2.26 µM
O=c1cc(N2CCNCC2)oc2c(-c3ccccc3)cccc12,> 100 µM,> 100 µM,31.7 µM,> 100 µM,37 µM,> 100 µM,18.1 µM,39.8 µM,> 100 µM,> 100 µM,17.3 µM,> 100 µM,25,74.8,15.3 µM,38.5 µM,26.8,> 100 µM,14.8 µM,32.5 µM
CCN1C(=O)NC(=O)C(C)(N2C(=O)c3c(F)c(F)c(F)c(F)c3C2=O)C1=O (centres undefined),3.6 µM,18.2 µM,1.87 µM,4 µM,1.66 µM,3.97 µM,2.52 µM,7.77 µM,9.58 µM,36.7 µM,1.86 µM,4.12 µM,17.7,32.9,1.65 µM,6.53 µM,1.94,4.86 µM,4.92 µM,13.7 µM
Cc1noc(C)c1-c1cc(O)cc(C(O)c2ccccc2)c1 (centres undefined),6.32 µM,> 100 µM,3.6 µM,80.5 µM,27 µM,> 100 µM,8.55 µM,> 100 µM,21.3 µM,> 100 µM,1.02 µM,72.9 µM,2.6,20.3,1.94 µM,9.64 µM,4.35,> 100 µM,5.95 µM,29.5 µM
COc1ccc(-c2nn(-c3cccc(NC(=O)c4ccc5c(c4)OCCO5)c3)cc2-c2ccncc2)cc1Cl,1.01 µM,4.74 µM,3 µM,13 µM,0.454 µM,2.59 µM,5.48 µM,17.9 µM,3.3 µM,> 100 µM,0.335 µM,4.99 µM,0.422,3.45,1.36 µM,6.65 µM,2.63,15.8 µM,0.968 µM,3.3 µM
